Measurements published in patent US4016148A, “Peptide derivatives of phosphonic and phosphinic acids and intermediates therefor” (Hoffmann-La Roche Inc., priority 1975, dated 1977).
Residues, ends and D or L forms follow the SMILES beside them.

Experiments:
E. coli [1] = assay: Potentiation of antibiotics by the peptide derivative: MIC and fractional inhibitory concentration index against E. coli in Davis minimal medium; type: cell-based; settings: for Fractional Inhibitory Concentration Index: antibiotic in combination with (1R)-1-(L-alanylamino)-ethylphosphonic acid; for Minimum Inhibitory Concentration, Antibiotic + peptide derivative: concentration of the antibiotic: in combination with (1R)-1-(L-alanylamino)-ethylphosphonic acid
From the text: The peptide derivatives provided by this invention potentiate the activity of antibiotics (e.g. penicillin and cephalosporin antibiotics and D-cycloserine). Thus, for example the fractional inhibitory concentration indices of (1R)-1-(L-alanylamino)-ethylphosphonic acid in combination with a cephalosporin, with a penicillin antibiotic and with D-cycloserine against E. coli in Davis minimal medium are given in Table 1.

E. coli [2] = assay: Fractional inhibitory concentration indices of peptide derivatives in a 2:1 ratio with D-cycloserine against E. coli in Davis minimal medium; type: cell-based; settings: peptide derivative in a 2:1 ratio with D-cycloserine
From the text: Again, for example, the fractional inhibitory concentration indices of (1R)-1-(L-alanylamino)-ethylphosphonic acid (Derivative A), (1R)-1-(L-alanyl-L-alanylamino)-ethylphosphonic acid (Derivative B), (1R)-1-(L-alanyl-L-alanyl-L-alanylamino)-ethylphosphonic acid (Derivative C), (1R)-1-(L-alanyl-L-alanyl-L-alanyl-L-alanylamino)-ethylphosphonic acid (Derivative D), (1R)-1-(L-phenylalanylamino)-ethylphosphonic acid (Derivative E), (1R)-1-(L-valylamino)-ethylphosphonic acid (Derivative F) and (1R)-1-(L-leucylamino)-ethylphosphonic acid (Derivative G) in a 2:1 ratio with D-cycloserine against E. coli in Davis minimal medium are given in Table 2.

| SMILES | Minimum Inhibitory Concentration, Antibiotic alone (E. coli [1]) | Fractional Inhibitory Concentration Index (E. coli [1]) | Minimum Inhibitory Concentration, Antibiotic + peptide derivative: concentration of the antibiotic (E. coli [1]) | Fractional Inhibitory Concentration Index (E. coli [2]) | Fractional Inhibitory Concentration of D-cycloserine (E. coli [2]) | other results |
| --- | --- | --- | --- | --- | --- | --- |
| CC1=C(C(=O)O)N2C(=O)[C@@H](NC(=O)[C@H](N)C3=CCC=CC3)[C@H]2SC1 [Cephradine] | 16 µg/mL | 0.5 | 4 µg/mL | – | – | – |
| C[C@H](N)C(=O)N[C@@H](C)C(=O)N[C@@H](C)C(=O)N[C@@H](C)C(=O)N[C@@H](C)P(=O)(O)O [Derivative D, (1R)-1-(L-alanyl-L-alanyl-L-alanyl-L-alanylamino)-ethylphosphonic acid] (HELM PEPTIDE1{A.A.A.A.[C[C@H](N[*:1])P(=O)(O)O]}$$$$V2.0) | – | – | – | 0.2 | 0.10 | – |
| CC1(C)S[C@@H]2[C@H](NC(=O)[C@H](N)c3ccc(O)cc3)C(=O)N2[C@H]1C(=O)O [Amoxycillin] | 4 µg/mL | 0.3 | 1 µg/mL | – | – | – |
| CC(C)[C@H](N)C(=O)N[C@@H](C)P(=O)(O)O [Derivative F, (1R)-1-(L-valylamino)-ethylphosphonic acid] | – | – | – | 0.60 | 0.13 | – |
| N[C@@H]1CONC1=O [D-Cycloserine] | 64 µg/mL | 0.25 | 0.25 µg/mL | – | – | – |
| CC(C)C[C@H](N)C(=O)N[C@@H](C)P(=O)(O)O [Derivative G, (1R)-1-(L-leucylamino)-ethylphosphonic acid] | – | – | – | 0.27 | 0.12 | – |
| C[C@H](NC(=O)[C@@H](N)Cc1ccccc1)P(=O)(O)O [Derivative E, (1R)-1-(L-phenylalanylamino)-ethylphosphonic acid] | – | – | – | 0.48 | 0.13 | – |
| C[C@H](N)C(=O)N[C@@H](C)C(=O)N[C@@H](C)P(=O)(O)O [Derivative B, (1R)-1-(L-alanyl-L-alanylamino)-ethylphosphonic acid] | – | – | – | 0.2 | 0.03 | – |
| C[C@H](N)C(=O)N[C@@H](C)P(=O)(O)O [Derivative A, (1R)-1-(L-alanylamino)-ethylphosphonic acid] | – | – | – | 0.3 | 0.06 | Minimum Inhibitory Concentration, Antibiotic + peptide derivative: concentration of the peptide derivative (E. coli [1]; in combination with Amoxycillin): 0.06 µg/mL; Minimum Inhibitory Concentration, Antibiotic + peptide derivative: concentration of the peptide derivative (E. coli [1]; in combination with Cephradine): 0.25 µg/mL; Minimum Inhibitory Concentration, Antibiotic + peptide derivative: concentration of the peptide derivative (E. coli [1]; in combination with D-Cycloserine): 0.25 µg/mL |
| C[C@H](N)C(=O)N[C@@H](C)C(=O)N[C@@H](C)C(=O)N[C@@H](C)P(=O)(O)O [Derivative C, (1R)-1-(L-alanyl-L-alanyl-L-alanylamino)-ethylphosphonic acid] | – | – | – | 0.1 | 0.05 | – |
